# Assay results: patent US20060154255A1, “Blood and tissue sample assessment of mitochondrial function and biochemistry as a tool for selection for feed efficiency and other production parameters” (priority 2002, published 2006)
# Experiments:
# [1] = test system: breast muscle mitochondria; assay: H2O2 production (electron leak) in breast muscle mitochondria with respiratory chain inhibitors; format: biochemical, broilers
# leg muscle mitochondria = assay: H2O2 production (electron leak) in leg muscle mitochondria with respiratory chain inhibitors; format: biochemical, broilers; settings: low FE leg muscle mitochondria; versus no inhibitor (NI); rotenone 10 μM; P<0.07
# [2] = breast muscle mitochondria, inhibition at Complex II or Q cycle of Complex III, malonate 7 μM, TTFA 8 μM, myxothiazol 13 μM
# [3] = low FE breast muscle mitochondria, versus no inhibitor (NI), rotenone 10 μM, antimycin A 13 μM
Compound,"H2O2 production [1, 2]","H2O2 production [1, 3]",H2O2 production (leg muscle mitochondria)
"O=C(CC(=O)C(F)(F)F)c1cccs1 [TTFA, 4,4,4-trifluoro-1-[2-thienyl]-1,3-butanedione]",No differences were observed,,
O=C(O)CC(=O)O [malonate],No differences were observed,,
CO/C(=C/C(N)=O)[C@H](C)[C@H](/C=C/c1csc(-c2csc([C@@H](C)/C=C/C=C/C(C)C)n2)n1)OC [myxothiazol],No differences were observed,,
C=C(C)[C@H]1Cc2c(ccc3c2O[C@@H]2COc4cc(OC)c(OC)cc4[C@@H]2C3=O)O1 [rotenone],,raised H2O2 production,an elevation
antimycin A,,raised H2O2 production,
